In brackets after ≈: the same amount, converted by molar mass. Read-outs that look alike come from different tables or passages of the source.
Tested on: M. tuberculosis
Test: microbe, parasite or virus in culture
Assay type: cell-based, Mycobacterium tuberculosis
Conditions: resistance profile INH; for MIC90: Mycobacterium tuberculosis
[1] = read-out: In vitro MIC90, strain BC-MDR2, RIF, PZA, SM, RBT
[2] = read-out: In vitro MIC90, strain BC-MDR3, RIF, RBT
[3] = read-out: In vitro MIC90, strain BC-MDR4, RIF, EMB, PZA, RBT
[4] = read-out: In vitro MIC90, strain BC-MDR5, RIF, PZA, SM, PAS, RBT
[5] = read-out: In vitro MIC90, strain CI5058, RIF
[6] = read-out: In vitro MIC90, strain CI5072, RIF, SM
[7] = read-out: In vitro MIC90, strain CI5297
[8] = read-out: In vitro MIC90, strain CI5305
[9] = read-out: In vitro MIC90, strain CI5324, RIF
[10] = read-out: In vitro MIC90, strain CI5358, EMB, ETH
[11] = read-out: In vitro MIC90, strain CI5400, RIF
[12] = read-out: In vitro MIC90, strain CI5447
[13] = read-out: In vitro MIC90, strain CI5459, EMB, ETH
[14] = read-out: In vitro MIC90, strain CI12081, RIF, SM, EMB, ETH
[15] = read-out: In vitro MIC90, strain KZN5, RIF, SM, EMB, ETH, KM, PZA
[16] = read-out: In vitro MIC90, strain KZN6, RIF, SM, EMB, ETH, KM, PZA
[17] = read-out: In vitro MIC90, strain KZN11, RIF, SM, EMB
[18] = read-out: In vitro MIC90, strain KZN12, RIF, SM, EMB, ETH, KM, PZA
[19] = read-out: In vitro MIC90, strain KZN14, RIF, SM, EMB, ETH, KM, PZA
[20] = read-out: In vitro MIC90, strain KZN15, RIF, SM, EMB, ETH, KM, PZA
[21] = read-out: In vitro MIC90, strain KZN16, RIF, SM, EMB, ETH, KM, PZA
[22] = read-out: In vitro MIC90, strain V2475, RIF

## CC[C@H](C)[C@H]1O[C@]2(CC[C@@H]1C)C[C@@H]1C[C@@H](C/C=C(\C)[C@@H](O[C@H]3C[C@H](OC)[C@@H](O[C@H]4C[C@H](OC)[C@@H](O)[C@H](C)O4)[C@H](C)O3)[C@@H](C)/C=C/C=C3\CO[C@@H]4[C@H](O)C(C)=C[C@@H](C(=O)O1)[C@]34O)O2 [Ivermectin]
Strain BC-MDR2, RIF, PZA, SM, RBT
  In vitro MIC90: > 128 µg/mL
Strain BC-MDR3, RIF, RBT
  In vitro MIC90: 1 to 2 µg/mL
Strain BC-MDR4, RIF, EMB, PZA, RBT
  In vitro MIC90: 4 to 16 µg/mL
Strain BC-MDR5, RIF, PZA, SM, PAS, RBT
  In vitro MIC90: 4 to 16 µg/mL
Strain CI5058, RIF
  In vitro MIC90: 6 µg/mL
Strain CI5072, RIF, SM
  In vitro MIC90: >24 µg/mL
Strain CI5297
  In vitro MIC90: 6 µg/mL
Strain CI5305
  In vitro MIC90: 3 µg/mL
Strain CI5324, RIF
  In vitro MIC90: 6 µg/mL
Strain CI5358, EMB, ETH
  In vitro MIC90: 3 µg/mL
Strain CI5400, RIF
  In vitro MIC90: 3 µg/mL
Strain CI5447
  In vitro MIC90: 1.5 µg/mL
Strain CI5459, EMB, ETH
  In vitro MIC90: 3 µg/mL
Strain CI12081, RIF, SM, EMB, ETH
  In vitro MIC90: >24 µg/mL
Strain H37Rv mc^24977
  In vitro MIC90: 6 µg/mL
Strain H37Rv mc^25857, RIF
  In vitro MIC90: 3 µg/mL
Strain H37Rv mc^25858, RIF
  In vitro MIC90: 3 µg/mL
Strain KZN5, RIF, SM, EMB, ETH, KM, PZA
  In vitro MIC90: 6 µg/mL
Strain KZN6, RIF, SM, EMB, ETH, KM, PZA
  In vitro MIC90: 6 µg/mL
Strain KZN11, RIF, SM, EMB
  In vitro MIC90: 3 µg/mL
Strain KZN12, RIF, SM, EMB, ETH, KM, PZA
  In vitro MIC90: 3 µg/mL
Strain KZN14, RIF, SM, EMB, ETH, KM, PZA
  In vitro MIC90: 6 to 12 µg/mL
Strain KZN15, RIF, SM, EMB, ETH, KM, PZA
  In vitro MIC90: 6 µg/mL
Strain KZN16, RIF, SM, EMB, ETH, KM, PZA
  In vitro MIC90: 3 µg/mL
Strain V2475, RIF
  In vitro MIC90: 1.5 µg/mL

## CO/N=C1\C[C@]2(C[C@@H]3C[C@@H](C/C=C(\C)C[C@@H](C)/C=C/C=C4\CO[C@@H]5[C@H](O)C(C)=C[C@@H](C(=O)O3)[C@]45O)O2)O[C@H](/C(C)=C/C(C)C)[C@H]1C [Moxidectin]
[1]
  MIC90: 2 to 4 µg/mL (≈ 3.13 to 6.25 µM)
[2]
  MIC90: 1 to 2 µg/mL (≈ 1.56 to 3.13 µM)
[3]
  MIC90: 2 to 4 µg/mL (≈ 3.13 to 6.25 µM)
[4]
  MIC90: 2 to 4 µg/mL (≈ 3.13 to 6.25 µM)
[5]
  MIC90: 6 µg/mL (≈ 9.38 µM)
[6]
  MIC90: 3 µg/mL (≈ 4.69 µM)
[7]
  MIC90: 6 µg/mL (≈ 9.38 µM)
[8]
  MIC90: 1.5 µg/mL (≈ 2.34 µM)
[9]
  MIC90: 3 µg/mL (≈ 4.69 µM)
[10]
  MIC90: 3 µg/mL (≈ 4.69 µM)
[11]
  MIC90: 3 µg/mL (≈ 4.69 µM)
[12]
  MIC90: 0.8 to 1.5 µg/mL (≈ 1.25 to 2.34 µM)
[13]
  MIC90: 1.5 µg/mL (≈ 2.34 µM)
[14]
  MIC90: 3 µg/mL (≈ 4.69 µM)
[15]
  MIC90: 3 µg/mL (≈ 4.69 µM)
[16]
  MIC90: 3 µg/mL (≈ 4.69 µM)
[17]
  MIC90: 3 µg/mL (≈ 4.69 µM)
[18]
  MIC90: 1.5 µg/mL (≈ 2.34 µM)
[19]
  MIC90: 3 to 6 µg/mL (≈ 4.69 to 9.38 µM)
[20]
  MIC90: 3 µg/mL (≈ 4.69 µM)
[21]
  MIC90: 1.5 µg/mL (≈ 2.34 µM)
[22]
  MIC90: 3 µg/mL (≈ 4.69 µM)

## CO[C@H]1C[C@H](O[C@@H]2/C(C)=C/C[C@@H]3C[C@@H](C[C@]4(CC[C@H](C)[C@@H](C5CCCCC5)O4)O3)OC(=O)[C@@H]3C=C(C)/C(=N/O)[C@H]4OC/C(=C\C=C\[C@@H]2C)[C@]43O)O[C@@H](C)[C@@H]1O [Selamectin]
[1]
  MIC90: 2 µg/mL (≈ 2.6 µM)
[2]
  MIC90: 0.5 to 1 µg/mL (≈ 0.649 to 1.3 µM)
[3]
  MIC90: 2 µg/mL (≈ 2.6 µM)
[4]
  MIC90: 2 µg/mL (≈ 2.6 µM)
[5]
  MIC90: 6 µg/mL (≈ 7.79 µM)
[6]
  MIC90: 3 to 6 µg/mL (≈ 3.9 to 7.79 µM)
[7]
  MIC90: 3 µg/mL (≈ 3.9 µM)
[8]
  MIC90: 1.5 µg/mL (≈ 1.95 µM)
[9]
  MIC90: 3 µg/mL (≈ 3.9 µM)
[10]
  MIC90: 1.5 µg/mL (≈ 1.95 µM)
[11]
  MIC90: 3 µg/mL (≈ 3.9 µM)
[12]
  MIC90: 1.5 µg/mL (≈ 1.95 µM)
[13]
  MIC90: 1.5 to 3 µg/mL (≈ 1.95 to 3.9 µM)
[14]
  MIC90: 3 µg/mL (≈ 3.9 µM)
[15]
  MIC90: 3 µg/mL (≈ 3.9 µM)
[16]
  MIC90: 6 µg/mL (≈ 7.79 µM)
[17]
  MIC90: 3 µg/mL (≈ 3.9 µM)
[18]
  MIC90: 3 µg/mL (≈ 3.9 µM)
[19]
  MIC90: 6 µg/mL (≈ 7.79 µM)
[20]
  MIC90: 3 µg/mL (≈ 3.9 µM)
[21]
  MIC90: 1.5 µg/mL (≈ 1.95 µM)
[22]
  MIC90: 1.5 µg/mL (≈ 1.95 µM)
